Results from patent publication US20230313199A1, “TARGET FOR MODULATING BODY MASS” (Massachusetts Institute of Technology, priority 2020, published 2023).

What was measured:
HP motif peptide [1] = target: T1, HP motif peptide (Homo sapiens, UniProt Q9UPI3); assay: Isothermal titration calorimetry of HP motif peptide binding to heme (one-site model)
T1 construct: a synthetic 14-amino acid HP motif peptide; made in house; host or cells: chemical solid-phase synthesis (Koch Institute Biopolymers & Proteomics Core)

NTD of human MFSD7C = target: T2, NTD of human MFSD7C (Homo sapiens, UniProt Q9UPI3); assay: Heme absorbance-shift assay with wild-type NTD; assay type: binding
T2 construct: Plasmid harboring GST-His-tag-SUMO-NTD (amino acids 1-84); GST-His-tag-SUMO (N, cleaved yes); made in house; host or cells: Escherichia coli Lemo21(DE3)
T2 sequence (Q9UPI3 1-84): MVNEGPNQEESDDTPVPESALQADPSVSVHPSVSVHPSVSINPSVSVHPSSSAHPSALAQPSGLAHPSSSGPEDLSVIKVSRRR
Description: (§1) Heme absorbance-shift assay. Hemin was prepared fresh before each experiment. Approximately 20 mg of hemin (Sigma) was placed in a fresh tube and resuspended with 1 mL of DMSO. The hemin solution was slowly diluted while mixing with 1 mL of 2× buffer C (25 mM HEPES-NaOH pH 7.8, 10 mM NaCl), and aggregated hemin was eliminated by passing the solution through a 0.2 μm filter unit. Hemin concentration was determined by diluting the filtered solution with 1× buffer C 1:100 and using the extinction coefficient of 58,400 cm^−1M^−1 at 385 nm. For each reaction, the 200 μL reaction mix containing 100 μM hemin, 25 mM HEPES-NaOH pH 7.8, 10 mM NaCl, and various concentrations of wild-type or mutant NTD protein, was placed in a transparent 96-well plate. Absorbance intensity was measured using Tecan Infinite M200 Pro microplate reader, between 330 and 550 nm using 5 nm steps. The absorbance intensity for dissolved hemin was subtracted from absorbance intensity from hemin incubated with various concentrations of protein.

MCF7 cells = assay: Thermogenesis by FPT, parental MCF7 cells; assay type: cell-based, human; settings: heme for 1 hour
Description: Shown are representative graphs of OCR output of the indicated cells with or without hematin treatment and their responses to oligomycin, FCCP, and rotenone plus antimycin A (FIG. 12B), basal OCR (FIG. 12C), maximal OCR (FIG. 12D), and ECAR (FIG. 12E) from two separate experiments with n=10 biologically independent samples. Data are presented as mean value±standard deviation. Each dot represents one technical replicate. […] Parental and knockout cells were incubated with no probe or FPT for 6 hours, and then washed twice. A portion of FPT-treated cells was treated with heme for 1 hour. FPT fluorescence intensity was quantified by flow cytometry. Shown are representative plots from two separate experiments. P-values were calculated using two-way ANOVA (***p<0.001).
In the second approach, we used fluorescent polymeric thermometer (FPT), which we synthesized in-house (see above). Parental and knockout THP-1 cells were mixed together, washed and incubated with FPT in 5% w/v glucose solution for 6 hrs. The cells were washed with PBS twice and reseeded in dishes with glass bottom that was coated with poly-lysine. The cells were imaged under Confocal Laser-Scanning Microscopy at 37° C. […] Then the fluorescence intensities were determined by a flow cytometer.

mutant HP motif peptide = assay: Heme absorbance-shift assay with mutant HP motif peptide; assay type: binding; settings: both histidine residues in the HP motif peptide mutated to alanine
Description: (§2) Peptide synthesis. Wild-type HP motif peptide (HPSALAQPSGLAHP) and mutant HP motif peptide (APSALAQPSGLAAP) were synthesized using solid-phase synthesis and purified using HPLC by the Biopolymers & Proteomics Core at the Koch Institute for Integrative Cancer Research.
as §1

[2] = target: T3, Mutant NTD (all five histidine residues in the HP repeats mutated to alanine) (Homo sapiens, UniProt Q9UPI3, H30A/H36A/H48A/H54A/H66A); assay: Heme absorbance-shift assay with mutant NTD; assay type: binding
T3 construct: Plasmid harboring GST-His-tag-SUMO-NTD (amino acids 1-84); GST-His-tag-SUMO (N, cleaved yes); made in house; host or cells: Escherichia coli
T3 sequence (Q9UPI3 1-84 H30A/H36A/H48A/H54A/H66A): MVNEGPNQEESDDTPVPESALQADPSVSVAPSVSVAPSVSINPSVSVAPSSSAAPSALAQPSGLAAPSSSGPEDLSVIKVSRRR

HP motif peptide [3] = target: T1, HP motif peptide; assay: Heme absorbance-shift assay with wild-type HP motif peptide; assay type: binding; settings: 100 μM heme, various concentrations of HP motif peptide
Description: as §2, §1

SMILES: C=CC1=C(C)c2cc3[n-]c(cc4[n-]c(cc5nc(cc1n2)C(C)=C5C=C)c(C)c4CCC(=O)O)c(CCC(=O)O)c3C.[Fe+2] [heme]
- binding stoichiometry heme : HP motif peptide (HP motif peptide [1]): one heme bound to one HP motif peptide
- absorbance shift of heme (Soret band, Q band) (NTD of human MFSD7C; 100 μM heme, various concentrations of wild-type NTD): concentration-dependent increase in the intensities of the Soret band (415 nm) and the Q band (535 nm)
- heme binding sites per NTD from rate of increase of Soret band intensities (NTD of human MFSD7C; 415 nm absorbance versus NTD concentration): two or more heme binding sites per NTD
- FTP intensity (MCF7 cells): significantly stimulated
- absorbance shift of heme (mutant HP motif peptide): abolished
- absorbance shift of heme [2]: abolished
- absorbance shift of heme (Soret band, Q band) (HP motif peptide [3]): concentration-dependent increase in Soret band and Q band peaks
